Data from US9476064B2, “Neuro-progenitor produced from an SCNT-derived ES cell” (H. Bion Co., Ltd., priority 2003, dated 2016).

System: nucleus-transferred oocytes
Assay: Development of nucleus-transferred oocytes after reprogramming and chemical activation
Format: cell-based, human
Settings: then 2.0 mM 6-DMAP, reprogramming time 2 hour, G1.2 then SNUnt-2, 16 oocytes
Source text: Since a sperm-mediated activation, which is one of the major factors for a normal embryonic development, was absent in case of the nucleus-transferred oocyte obtained in Example 2, an artificial stimulus was needed instead. In order to determine the optimum conditions for artificial embryogenesis, therefore, nucleus-transferred oocytes were reprogrammed, activated and in vitro cultured under various conditions as shown in Tables 2 to 4.
Such nucleus-transferred oocytes were washed several times with the G1.2 medium, transferred to the G1.2 medium containing 2.0 mM 6-DMAP (Sigma Co., St. Louis, Mo., U.S.A.) and, then, cultured at 37° C., 5% CO2, 5% O2 and 90% N2 for 4 hours. After these activation steps, the nucleus-transferred oocytes were in vitro cultured under the same condition.

Compound: C[C@H](CCC(=O)O)C[C@H](C)C[C@H](C)C(=O)/C=C(\O)[C@H](C)C[C@H](C)C/C=C/[C@@H](C)[C@@H](O)[C@@H](C)[C@@H](O)C[C@@H]1CC[C@@](C)([C@H]2CC[C@@](C)([C@@H](C)O)O2)O1 [ionomycin]
- No. of nucleus-transferred oocytes developed to 2-cell stage (5 μM): 9
- No. of nucleus-transferred oocytes developed to blastocyst (5 μM): 0
- No. of nucleus-transferred oocytes developed to morula (5 μM): 0
- No. of nucleus-transferred oocytes developed to 2-cell stage (10 μM): 12
- No. of nucleus-transferred oocytes developed to blastocyst (10 μM): 0
- No. of nucleus-transferred oocytes developed to morula (10 μM): 0
